Source: patent publication US20040186170A1, “Benzofuran derivatives, pharmaceutical composition containing the same, and a process for the preparation of the active ingredient” (EGIS GYOGYSZERGYAR, priority 1998, published 2004)
Structures can show the parent of a compound that is named as a salt. Where two headings read alike, the source gives them in different places.

Assays:
Male Wistar rats = test: Anxiolytic effect, Vogel's conflict test; details: half an hour before the examination, tolerated number of electric shocks
Description: Determination of the Anxiolytic Effect on the Basis of Vogel's Conflict Test
The anxiolytic effect was examined by the method of Vogel et al./Vogel, J. R., Beer, B., Clody, D. E., Psychopharmacologia (Berl.), 21, 1 (1971)/. Male Wistar rats weighing 180 to 200 g were left to be thirsty for 48 hours and starved for 24 hours before the test. The substances to be examined and the carriers, respectively, were administered to the animals half an hour before the examination. In the test chamber, the rats were allowed to drink from the drinking tube protruding into the chamber. Following every 20th lick, the apparatus emitted an electric shock of 0.7 mA through the drinking tube. During the test lasting for 5 minutes, the number of those electric shocks was registered which the animals accepted in order to quench their thirst. The effect of the compounds was expressed as the increase of the tolerated number of electric shocks in percentage.
Meprobamate/2-methyl-2-propyltri-methylenecarbamate/ was used as the reference substance.

[1] = test system: isolated perfused rat heart; test: TTC prolonging effect in isolated Langendorff rat hearts (global ischemia)
Description: Measurement of the cardioprotective effect in ischemic rat heart (Langendorff) preparation
The time lapsed after starting global ischemia until the beginning of contracture (i.e. time to contracture=TTC) is prolonged by several cardioprotective compounds, thus, the effectiveness of the compounds can be examined by measuring TTC.
Male Sprague-Dawley rats weighing 300 to 350 g were injected with 2500 IU (0.5 ml) of heparin i.p. and 10 minutes later the animals were anaesthetized with sodium pentobarbital/5-ethyl-5-(1-methylbutyl)-2,4,6(1H,3H,5H)-pyrimidinetrione sodium salt/ in a dose of 60 mg/kg i.p. The heart was quickly excised, and the aorta was connected to a cannula fixed to a Langendorff apparatus. The heart was perfused at a constant pressure (8000 Pa) with a modified carbogenized Krebs-Henseleit solution. The composition of the solution was the following (in mM): NaCl 118, KCl 4.7, MgSO4 1.6, CaCl2 2.5, NaHCO3 24.88, KH2PO4 1.18, EDTA 0.5, glucose 11. Partial CO2 pressure and pH of the solution were maintained within the physiological limits (pCO2 4000-4650 Pa, pH=7.3-7.45).
A hole was cut in the wall of the left atrium and a water-filled plastic balloon attached to a metal cannula was inserted into the left ventricle. End diastolic pressure of the left ventricle was set to a value between 666-1333 Pa during the equilibration period by changing the volume of the liquid in the balloon, however, later it was not modified.
After a 20 minutes' equilibration period, the hearts were perfused for 10 minutes with the vehicle (0.04% of dimethyl sulfoxide), in case of the control group, or with a solution of the test substance at 10^−6 or 10^−5 M concentration, in case of the treated groups. The activity of the test compound was not examined further when, at the end of the 10 minutes' period, the systolic pressure of the left ventricle was reduced by more than 20%, compared to the control value determined before the treatment.
Global ischemia was initiated by completely shutting off the perfusate flow and carbogenization for 25 minutes. The time period from the beginning of ischemia until the formation of myocardial contracture i.e. an increase of 666 Pa in left ventricular end diastolic pressure (TTC) was measured.
3 parallel experiments were performed with the test compounds at each concentration and parameters of 3 additional vehicle (0.04% dimethyl sulfoxide) treated hearts were measured along with the test substance.
Individual TTC values were averaged, and the effect of the test substances was expressed as a percentage change compared to the vehicle treated group. […] As a reference substance, lemakalim i.e. (3S)-trans-3,4-dihydro-3-hydroxy-2,2-dimethyl-4-(2-oxo-1-pyrrolidinyl)-2H-1-benzpyrane-6-carbonitrile was used.

Male Sprague-Dawley rats = test: Elevated plus-maze test on rats; assay type: in vivo, rat; details: for MED (in mg/kg) p.o.: 60 minutes prior to the test, based on the time spent in the open arms
Description: Elevated Plus-Maze Test on Rats
The test was carried out according to a modified method of Pelow et al./J. Neurosci. Methods, 14, 149 (1985)/. The elevated plus-maze consists of two open and two 40 cm wall enclosed arms of the same size (50×15 cm) arranged in the shape of a cross. The arms of the same type are opposite to each other. The junction of the four arms forms a central square area (15×15 cm). The apparatus is made of a wooden material elevated to a height of 50 cm and illuminated by a dim light from above. Male Sprague-Dawley rats weighing 220 to 260 g were used for the experiment.
The rats were treated with the test or reference compounds 60 minutes prior to the test. The animals were then placed onto a central square area and were subjected to the test for 5 minutes. The following 4 different parameters were determined:
time spent in the open arms;
time spent in the closed arms;
number of entries into the open arms;
number of entries into the closed arms.
A compound was considered to be effective where significant increase was found either in the time spent in the open arms (in sec) or in the number of entries into the open arms when compared to the control animals (in percentage). Minimum effective doses (MED) were determined based on the time spent in the open arms for each compound examined. Buspirone was used as the reference material.

5-HT1A receptor = target: T1, 5-HT1A receptor (Rattus norvegicus, UniProt P19327); test: 5-HT1A receptor binding assay
T1 sequence (P19327 1-422): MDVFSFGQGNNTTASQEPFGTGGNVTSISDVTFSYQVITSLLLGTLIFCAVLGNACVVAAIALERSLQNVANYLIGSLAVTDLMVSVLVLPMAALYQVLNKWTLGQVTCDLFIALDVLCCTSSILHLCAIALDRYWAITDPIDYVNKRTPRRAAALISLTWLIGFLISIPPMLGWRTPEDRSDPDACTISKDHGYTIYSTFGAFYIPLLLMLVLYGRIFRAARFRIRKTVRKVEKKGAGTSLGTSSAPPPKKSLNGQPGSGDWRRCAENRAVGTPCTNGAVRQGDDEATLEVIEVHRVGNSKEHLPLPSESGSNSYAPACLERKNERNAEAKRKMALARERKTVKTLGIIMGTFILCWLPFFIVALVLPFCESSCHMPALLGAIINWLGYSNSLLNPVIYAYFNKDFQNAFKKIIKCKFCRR

[2] = 10^−5 M, time to contracture, change compared to the vehicle treated group
[3] = 10^−6 M, time to contracture, change compared to the vehicle treated group

## CCCC(C)(COC(N)=O)COC(N)=O [meprobamate, 2-methyl-2-propyltri-methylenecarbamate, reference compound]
Male Wistar rats
  MED in mg/kg ip.: 50 mg/kg

## COc1cccc(C2(O)CCN(CC(O)COc3cccc4c3OC(C)(C)C4)CC2)c1 (stereo not drawn) [Example 25, 1-/3-(2,2-Dimethyl-2,3-dihydrobenzofuran-7-yloxy)-2-hydroxypropyl/-4-hydroxy-4-(3-methoxyphenyl)-piperidine hydrochloride]
[1]
  TTC change (in %) at 10^−5 M: 59%
  TTC change (in %) at 10^−6 M: 2%
Male Sprague-Dawley rats; in words
  anxiolytic effect compared with buspirone: superior by one order of magnitude to buspirone
Male Sprague-Dawley rats
  MED (in mg/kg) p.o.: 0.3 mg/kg
5-HT1A receptor
  Ki: 0.7 nM

## COc1ccc(N2CCN(CC(O)COc3cccc4c3OC(C)(C)C4)CC2)cc1 (stereo not drawn) [Example 68, 1-/3-(2,2-Dimethyl-2,3-dihydrobenzofuran-7-yloxy)-2-hydroxypropyl/-4-(4-methoxyphenyl)-piperazine]
[1]; [2]
  TTC change (in %) at 10^−5 M: 43%
[1]; [3]
  TTC change (in %) at 10^−6 M: 0%
Male Wistar rats
  MED in mg/kg ip.: 20 mg/kg

## CC1(C)Cc2cccc(OCC(O)CN3CCC(O)(c4ccc(F)cc4)CC3)c2O1 (stereo not drawn) [Example 16, 1-/3-(2,2-Dimethyl-2,3-dihydrobenzofuran-7-yloxy)-2-hydroxypropyl/-4-hydroxy-4-(4-fluoro-phenyl)piperidine]
[1]
  TTC change (in %) at 10^−5 M: 78%
  TTC change (in %) at 10^−6 M: 5%
Male Sprague-Dawley rats
  MED (in mg/kg) p.o.: 1 mg/kg
5-HT1A receptor
  Ki: 3 nM

## CC1(C)Cc2cccc(OCC(O)CN3CCN(c4ccc(Cl)cc4)CC3)c2O1 (stereo not drawn) [Example 73, 1-/3-(2,2-Dimethyl-2,3-dihydrobenzofuran-7-yloxy)-2-hydroxypropyl/-4-(4-chlorophenyl)-piperazine]
[1]; [2]
  TTC change (in %) at 10^−5 M: 49%
[1]; [3]
  TTC change (in %) at 10^−6 M: 19%

## COc1ccc2cc(C3CCN(CC(O)COc4cccc5c4OC(C)(C)C5)CC3)ccc2c1.Cl (stereo not drawn) [Example 23, 1-/3-(2,2-Dimethyl-2,3-dihydrobenzofuran-7-yloxy)-2-hydroxypropyl/-4-(6-methoxynaphth-2-yl)piperidine hydrochloride]
Male Sprague-Dawley rats
  MED (in mg/kg) p.o.: 3 mg/kg

## CC1(C)Cc2cccc(OCC(O)CN3CCC(O)(c4cccc(Cl)c4)CC3)c2O1 (stereo not drawn) [Example 24, 1-/3-(2,2-Dimethyl-2,3-dihydrobenzofuran-7-yloxy)-2-hydroxypropyl/-4-hydroxy-4-(3-chloro-phenyl)-piperidine hydrochloride]
[1]
  TTC change (in %) at 10^−6 M: 47%
Male Sprague-Dawley rats
  MED (in mg/kg) p.o.: 3 mg/kg
5-HT1A receptor
  Ki: 12 nM

## CC1(C)Cc2cccc(OCC(O)CN3CC=C(c4cccc(C(F)(F)F)c4)CC3)c2O1.Cl (stereo not drawn) [Example 8, 1-/3-(2,2-Dimethyl-2,3-dihydrobenzofuran-7-yloxy)-2-hydroxypropyl/-4-(3-trifluoromethyl-phenyl)-1,2,3,6-tetrahydropyridine hydrochloride]
[1]; [2]
  TTC change (in %) at 10^−5 M: 90%
[1]; [3]
  TTC change (in %) at 10^−6 M: 43%

## CC1(C)Cc2cccc(OCC(O)CN3CCC(C#N)(c4ccccc4)CC3)c2O1.Cl (stereo not drawn) [Example 41, 1-/3-(2,2-Dimethyl-2,3-dihydrobenzofuran-7-yloxy)-2-hydroxypropyl/-4-cyano-4-phenyl-piperidine hydrochloride]
[1]
  TTC change (in %) at 10^−5 M: 53%
  TTC change (in %) at 10^−6 M: 32%

## CC1(C)Cc2cccc(OCC(O)CN3CCN(c4cccc(F)c4)CC3)c2O1 (stereo not drawn) [Example 66, 1-/3-(2,2-Dimethyl-2,3-dihydrobenzofuran-7-yloxy)-2-hydroxypropyl/-4-(3-fluorophenyl)-piperazine]
[1]; [2]
  TTC change (in %) at 10^−5 M: 66%
[1]; [3]
  TTC change (in %) at 10^−6 M: 5%

## CC1(C)Cc2cccc(OCC(O)CN3CCC(O)(c4ccccc4)CC3)c2O1 (stereo not drawn) [Example 20, 1-/3-(2,2-Dimethyl-2,3-dihydrobenzofuran-7-yloxy)-2-hydroxypropyl/-4-hydroxy-4-phenyl-piperidine hydrochloride]
[1]
  TTC change (in %) at 10^−5 M: 65%
  TTC change (in %) at 10^−6 M: 18%
5-HT1A receptor
  Ki: 6 nM

## CC1(C)Cc2cccc(OCC(O)CN3CCC(O)(c4cccc(C(F)(F)F)c4)CC3)c2O1 (stereo not drawn) [Example 9, 1-/3-(2,2-Dimethyl-2,3-dihydrobenzofuran-7-yloxy)-2-hydroxypropyl/-4-hydroxy-4-(3-tri-fluoromethylphenyl)piperidine hydrochloride]
[1]
  TTC change (in %) at 10^−6 M: 90%
  TTC prolongation compared with lemakalim: surpasses remarkably also the effect of lemakalim
5-HT1A receptor
  Ki: 20 nM

## O=C1CC2(CCCC2)CC(=O)N1CCCCN1CCN(c2ncccn2)CC1 [buspirone, reference compound]
Male Sprague-Dawley rats
  MED (in mg/kg) p.o.: 3 mg/kg

## CC1(C)Cc2cccc(OCC(O)CN3CCN(c4ccc(F)cc4)CC3)c2O1 (stereo not drawn) [Example 63, 1-/3-(2,2-Dimethyl-2,3-dihydrobenzofuran-7-yloxy)-2-hydroxypropyl/-4-(4-fluorophenyl)-piperazine]
[1]; [2]
  TTC change (in %) at 10^−5 M: 111%
[1]; [3]
  TTC change (in %) at 10^−6 M: −3%

## CC1(C)Cc2cccc(OCC(O)CN3CCC(O)(c4ccc(Cl)cc4)CC3)c2O1 (stereo not drawn) [Example 14, 1-/3-(2,2-Dimethyl-2,3-dihydrobenzofuran-7-yloxy)-2-hydroxypropyl/-4-hydroxy-4-(4-chloro-phenyl)piperidine]
5-HT1A receptor
  Ki: 10 nM

## COc1ccc(C2(O)CCN(CC(O)COc3cccc4c3OC(C)(C)C4)CC2)cc1 (stereo not drawn) [Example 26, 1-/3-(2,2-Dimethyl-2,3-dihydrobenzofuran-7-yloxy)-2-hydroxypropyl/-4-hydroxy-4-(4-methoxyphenyl)-piperidine]
[1]
  TTC change (in %) at 10^−6 M: 43%
5-HT1A receptor
  Ki: 3 nM

## CC1(C)Oc2ccc(C#N)cc2[C@@H](N2CCCC2=O)[C@@H]1O [lemakalim, (3S)-trans-3,4-dihydro-3-hydroxy-2,2-dimethyl-4-(2-oxo-1-pyrrolidinyl)-2H-1-benzpyrane-6-carbonitrile, reference compound]
[1]; [2]
  TTC change (in %) at 10^−5 M: 55%
[1]; [3]
  TTC change (in %) at 10^−6 M: 20%

## COc1cccc(N2CCN(CC(O)COc3cccc4c3OC(C)(C)C4)CC2)c1.Cl.Cl (stereo not drawn) [Example 76, 1-/3-(2,2-Dimethyl-2,3-dihydrobenzofuran-7-yloxy)-2-hydroxypropyl/-4-(3-methoxyphenyl)-piperazine dihydrochloride]
[1]; [2]
  TTC change (in %) at 10^−5 M: 80%
[1]; [3]
  TTC change (in %) at 10^−6 M: 25%

## Cc1ccc(C2(O)CCN(CC(O)COc3cccc4c3OC(C)(C)C4)CC2)cc1 (stereo not drawn) [Example 30, 1-/3-(2,2-Dimethyl-2,3-dihydrobenzofuran-7-yloxy)-2-hydroxypropyl/-4-hydroxy-4-(4-methyl-phenyl)piperidine hydrochloride]
5-HT1A receptor
  Ki: 5 nM
